US20260200884A1, “COMPOUND FOR TREATING GOUT OR HYPERURICEMIA” (Arthrosi Therapeutics, Inc., priority 2019, published 2026)

What was measured:
[1] = Solubility of the test article in HBSS assay buffer; format: physicochemical; details: all tested concentrations 0.01-10 μM; highest tested concentration 10 μM
Experimental: Before the experiment, the medium was removed and the cells were washed twice with 100 μL of HBSS without Cl^−. Uptake experiments were carried out at 37±1° C. in 50 μL of HBSS without Cl^−, pH 7.4 containing the probe substrate (20 μM uric acid) and the test article (TA) or solvent.
Results: Compound 1 was soluble in HBSS buffer at all tested concentrations; the highest tested concentration being 10 μM.

[2] = cited from earlier work

Compound | solubility in HBSS buffer [1] | serum uric acid (sUA) level reached ([2]; chronic therapy, patients) [mg/dL] | hepatotoxicity ([2]; in certain patients)
[2H]c1c(O)c([2H])c2oc(C(C)O)c(C(=O)c3cc(Br)c(O)c(Br)c3)c2c1[2H] (stereo not drawn) [Compound 1, (3,5-dibromo-4-hydroxyphenyl)(6-hydroxy-2-(1-hydroxyethyl)benzofuran-3-yl-4,5,7-d3)methanone] | soluble |  | 
CCc1oc2ccccc2c1C(=O)c1cc(Br)c(O)c(Br)c1 [Benzbromarone] |  | < 6 | associated with hepatotoxicity
